Reference: US12139481B2, “Compositions comprising macrocycle derivatives incorporating bridged macrocycles and methods of producing and using same” (Southwestern Oklahoma State University, priority 2015, dated 2024)

What was measured:
[1] = system: L. donovani promastigotes; assay: Antileishmanial Alamar Blue assay on promastigotes; assay type: cell-based, Leishmania donovani; settings: for X more potent than Pentamidine: L. donovani, ratio of molar IC50 to Pentamidine; for L. donovani IC50 / IC50: promastigotes, 48 hours, Alamar Blue; for IC50: read-out: L. donavani IC50
Procedure, shortened: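 Alamar Blue fluorescence (544/590 nm) quantified growth after 48 hours at 26° C of compound-treated promastigotes. Parasites were seeded at 5×10^5/mL in RPMI 1640 plus 10% FCS; drug range 50-3.1 μg/mL, and IC50 derived by plotting percent growth against test concentration.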

[2] = system: S. mansoni newly transformed schistosomula (NTS); assay: In vitro testing on Schistosoma mansoni newly transformed schistosomula (NTS), viability score; assay type: cell-based; settings: NTS S. mansoni, 33 μM, 72 h
Method: Assays were prepared according to the laboratory SOP for the lab of Dr. Jennifer Keiser (Swiss Tropical and Public Health Institute, Basel). Harvested S. mansoni cercariae (Liberian strain) obtained from infected Biomphalaria glabrata snails were mechanically transformed into newly transformed schistosomula (NTS) following standard procedures. Briefly, snails were placed under light in the morning to stimulate cercarial shedding. The cercarial suspension was collected, cooled for 30 minutes, and then vigorously pipetted (30×) and vortexed (3 minutes). The suspension was then placed in the incubator (37° C. and 5% CO2) for 30 minutes, and the vortexing and pipetting steps were repeated. The transformation was complete at this point, and the tails were separated from the heads by rinsing three times with cold HBSS. NTS were then incubated overnight in culture medium overnight and used the next day.
The original stock compounds (which were not already dissolved) were dissolved in dimethyl sulfoxide (DMSO) to a concentration of 10 mM. 100 NTS were placed in each well of a 96-well plate with culture medium, and the test compound for a final well volume of 250 μl. […] NTS incubated with no more than 1% DMSO served as control. NTS were kept in an incubator at 37° C. and 5% CO2 for up to 72 hours. After 72 hours, the condition of the NTS was microscopically evaluated using a scale from 3 (normal activity and no tegument alteration) to 0 (dead, completely granulated).

[3] = system: Cryptococcus neoformans ATCC 90113; assay: Antimicrobial microdilution assay against Cryptococcus neoformans (modified CLSI/NCCLS, optical density); assay type: cell-based; settings: for X more potent than Amphotericin B: C. neoformans, ratio of molar IC50 to Amphotericin B; for C. neoformans IC50 / IC50: in vitro, C. neoformans ATCC 90113; for IC50: read-out: C. neoformans IC50 (mol/L)
Procedure, shortened: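 Fungicidal endpoint taken by subculturing 5 μL from each clear well onto agar, MFC being the lowest concentration with no regrowth. Duplicate wells of serially diluted compound (20% DMSO/saline) in RPMI pH 6.0, read at 630 nm pre- and post-incubation, under modified CLSI methods. IC50 means 50% growth inhibition against controls.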

C. glabrata ATCC 90030 = assay: Antifungal broth dilution assay against C. glabrata (modified CLSI); assay type: cell-based, Candida glabrata; settings: for C. glabrata IC50 / IC50: in vitro; for IC50: converted with molecular weight; for X more potent than Amphotericin B: molar IC50 ratio versus amphotericin B
Procedure, shortened: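 Growth read by optical density at 530 nm, duplicate wells, 1% final DMSO. Staphylococcus spp.: Mueller-Hinton pH 7.3, 5.0×10^5 CFU/ml, 35 °C for 16-20 h; Candida spp.: RPMI/dextrose/glutamine/MOPS pH 6.0, 1.5×10^3 CFU/ml, 35 °C for 46-50 h. Reported values are 50% inhibition versus controls, no-growth MIC, and killing MFC/MBC.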

Row | Molecule | X more potent than Pentamidine [1] | L. donovani IC50 [1] | IC50 [1] | Effect at 72 h (%) [2] | X more potent than Amphotericin B [3] | C. neoformans IC50 [3] | IC50 [3] | C. glabrata IC50 (C. glabrata ATCC 90030) | IC50 (C. glabrata ATCC 90030) | X more potent than Amphotericin B (C. glabrata ATCC 90030)
1 | CN1CCCN2CCN(CCCN(Cc3cc(CN4CCCN5CCN(C)CCCN(CC5)CC4)cc(CN4CCCN5CCN(C)CCCN(CC5)CC4)c3)CC2)CC1 [BNS018, tris-CB-cyclams] | 0.57 | 7.73 µg/mL | 9.25 µM | 11.71% | 2.21 | 0.090 µg/mL | 0.108 µM |  |  | 
2 | CC(=O)[O-].CC(=O)[O-].CC(=O)[O-].CN1CCN2CCN(CC1)CCN(Cc1cc(CN3CCN4CCN(C)CCN(CC4)CC3)cc(CN3CCN4CCN(C)CCN(CC4)CC3)c1)CC2.F[P-](F)(F)(F)(F)F.F[P-](F)(F)(F)(F)F.F[P-](F)(F)(F)(F)F.O.O.O.O.O.O.[Ni+2].[Ni+2].[Ni+2] [BNS19] |  |  |  | 18.02% |  |  |  | 4.900 µg/mL | 2.97 µM | 0.48
3 | CC(=O)[O-].CC(=O)[O-].CC(=O)[O-].F[P-](F)(F)(F)(F)F.F[P-](F)(F)(F)(F)F.F[P-](F)(F)(F)(F)F.[Co+2].[Co+2].[Co+2].c1c(CN2CCCN3CCN(CCCNCC2)CC3)cc(CN2CCCN3CCN(CCCNCC2)CC3)cc1CN1CCCN2CCN(CCCNCC1)CC2 [CDG025, [Co3(tris-SB-Cyclams)(OAc)3][PF6]3] |  |  |  | 18.02% | 0.21 | 1.800 µg/mL | 1.14 µM | 1.500 µg/mL | 0.948 µM | 1.50
4 | CC(=O)[O-].CC(=O)[O-].CC(=O)[O-].F[P-](F)(F)(F)(F)F.F[P-](F)(F)(F)(F)F.F[P-](F)(F)(F)(F)F.F[P-](F)(F)(F)(F)F.[NH4+].[Zn+2].[Zn+2].[Zn+2].c1c(CN2CCCN3CCN(CCCNCC2)CC3)cc(CN2CCCN3CCN(CCCNCC2)CC3)cc1CN1CCCN2CCN(CCCNCC1)CC2 [CDG026, [Zn3(tris-SB-Cyclams)(OAc)3][PF6]3•NH4PF6] |  |  |  | 11.71% | 0.04 | 10.030 µg/mL | 5.69 µM | 3.420 µg/mL | 1.94 µM | 0.73
5 | CC(=O)[O-].CC(=O)[O-].CC(=O)[O-].F[P-](F)(F)(F)(F)F.F[P-](F)(F)(F)(F)F.F[P-](F)(F)(F)(F)F.O.[Ni+2].[Ni+2].[Ni+2].c1c(CN2CCNCCN3CCN(CC3)CC2)cc(CN2CCNCCN3CCN(CC3)CC2)cc1CN1CCNCCN2CCN(CC2)CC1 [CDG030, [Ni3(tris-SB-Cyclens)0Ac)3][PF6]3•H2O] |  |  |  | 18.02% | 0.45 | ≤ 0.800 µg/mL | 0.528 µM | 4.170 µg/mL | 2.75 µM | 0.52
6 | CC(=O)[O-].CC(=O)[O-].CN1CCN2CCN(CC1)CCN(Cc1cccc(CN3CCN4CCN(C)CCN(CC4)CC3)c1)CC2.F[P-](F)(F)(F)(F)F.F[P-](F)(F)(F)(F)F.[Cu+2].[Cu+2] [DJC06A, [Cu2(m-CB-Cyclens)(OAc)2][PF6]2] |  |  |  | 5.41% | 0.04 | 6.710 µg/mL | 6.32 µM |  |  | 
7 | CC(=O)[O-].CC(=O)[O-].CN1CCN2CCN(CC1)CCN(Cc1cccc(CN3CCN4CCN(C)CCN(CC4)CC3)c1)CC2.F[P-](F)(F)(F)(F)F.F[P-](F)(F)(F)(F)F.[Zn+2].[Zn+2] [DJC07, [Zn2(m-CB-Cyclens)(OAc)2][PF6]2] |  |  |  | 0.00% | 0.03 | 7.410 µg/mL |  |  |  | 
8 | Cl.Cl.Cl.Cl.Cl.Cl.Cl.Cl.O.O.O.O.c1cc(CN2CCCN3CCN(CCCNCC2)CC3)cc(CN2CCCN3CCN(CCCNCC2)CC3)c1 [KS226, m-SB-cyclams HCl salt] | 0.28 | 17.61 µg/mL | 19.2 µM | 5.41% | 3.13 | 0.070 µg/mL | 0.0762 µM |  |  | 
9 | CC(=O)[O-].CC(=O)[O-].F[P-](F)(F)(F)(F)F.F[P-](F)(F)(F)(F)F.[Cu+2].[Cu+2].c1cc(CN2CCNCCN3CCN(CC3)CC2)ccc1CN1CCNCCN2CCN(CC2)CC1 [OB28, [Cu2(p-SB-Cyclens)(OAc)2][PF6]2] |  |  |  | 0.00% | 0.05 | 5.210 µg/mL | 5.04 µM |  |  | 
10 | CC(=O)[O-].CC(=O)[O-].F[P-](F)(F)(F)(F)F.F[P-](F)(F)(F)(F)F.O.[Ni+2].[Ni+2].c1cc(CN2CCNCCN3CCN(CC3)CC2)ccc1CN1CCNCCN2CCN(CC2)CC1 [OB29, [Ni2(p-SB-Cyclens)(OAc)2][PF6]2•H2O] |  |  |  | 5.41% | 0.31 | ≤ 0.800 µg/mL | 0.768 µM |  |  | 
11 | CC(=O)[O-].F[P-](F)(F)(F)(F)F.[Zn+2].c1ccc(CN2CCN3CCN(CC2)CCN(Cc2ccccc2)CC3)cc1 [RM42, [Zn(Bn2Bcyclen)(OAc)]PF6] | 0.73 | 4.73 µg/mL |  | 30.63% |  |  |  |  |  | 
12 | CC(=O)[O-].F[P-](F)(F)(F)(F)F.[Ni+2].c1ccc(CN2CCN3CCN(CC2)CCN(Cc2ccccc2)CC3)cc1 [TC10, [Ni(Bn2Bcyclen)(OAc)]PF6] | 0.31 | 10.95 µg/mL | 17.1 µM | 30.63% |  |  |  |  |  | 
13 | CC(=O)[O-].F[P-](F)(F)(F)(F)F.[Co+2].c1ccc(CN2CCCN3CCN(CCCN(Cc4ccccc4)CC3)CC2)cc1 [TC11, [Co(Bn2Bcyclam)(OAc)]PF6] | 0.10 | 35.29 µg/mL | 52.7 µM | 24.32% |  |  |  |  |  | 
14 | [Cu2(m-SB-Cyclams)(OAc)2][PF6]2 [KS24] |  |  |  | 18.02% | 0.08 | 3.180 µg/mL | 3.08 µM |  |  | 
15 | [Cu3(tris-SB-Cyclens)(OAc)3][PF6]3•0.5NH4PF6 [CDG022] |  |  |  | 11.71% | 0.07 | 5.480 µg/mL | 3.44 µM |  |  | 
16 | [Ni2(m-SB-Cyclams)(OAc)2][PF6]2 [KS25] |  |  |  | 18.02% | 0.02 | 16.030 µg/mL | 15.7 µM |  |  | 
17 | [Ni(Bn1Me1Bcyclam)(OAc)]PF6•0.5NH4PF6 [TRH11B] | 0.09 | 38.64 µg/mL | 59.7 µM | 24.32% |  |  |  |  |  | 
18 | [Zn2(m-SB-Cyclams)(OAc)2][PF6]2 [KS26] |  |  |  | 11.71% | 0.02 | 12.510 µg/mL | 12.1 µM |  |  | 
19 | [Zn3(tris-SB-Cyclens)(OAc)3][PF6]3•0.5NH4PF6 [CDG023] |  |  |  | 18.02% | 0.29 | 1.310 µg/mL | 0.819 µM |  |  | 
20 | m-CB-cyclens HCl salt [DJC05C] | 0.21 | 22.89 µg/mL | 25.7 µM | 5.41% | 0.23 | 0.940 µg/mL | 1.06 µM |  |  | 
